Earlier results in patent US20230255891A1, “Highly Compactable and Durable Direct Compression Excipients and Excipient Systems” (SPI Pharma, Inc., priority 2009, published 2023).

Tests used:
[1] = in water at 25
[2] = for 80° C. Solubility Kilos/100 Kilo solution: spray liquid temperature; for solubility in water: at 80 C in solution

Molecule	Solubility At 25 (g/100 g H2O) [1]	80° C. Solubility Kilos/100 Kilo solution [2] [Kilos/100 Kilo solution]	solubility in water [2]
OC[C@@H](O)[C@@H](O)CO [Erythritol]	61 g/100 g H2O	–	–
O=C(CO)[C@@H](O)[C@H](O)[C@H](O)CO [Fructose]	400 g/100 g H2O	–	–
OCC(O)CO [Glycerin]	Soluble	–	–
OC[C@@H](O)[C@@H](O[C@@H]1O[C@H](CO)[C@H](O)[C@H](O)[C@H]1O)[C@H](O)[C@@H](O)CO [Lactitol Monohydrate]	140 g/100 g H2O	–	–
OC[C@@H](O)[C@@H](O[C@@H]1O[C@H](CO)[C@H](O)[C@H](O)[C@H]1O)[C@H](O)[C@@H](O)CO [Lactitol]	–	82	–
OC[C@@H](O)[C@@H](O[C@H]1O[C@@H](CO)[C@@H](O)[C@@H](O)[C@H]1O)[C@H](O)[C@@H](O)CO [Maltitol]	175 g/100 g H2O	80.5	about 80%
OC[C@@H](O)[C@@H](O)[C@H](O)[C@H](O)CO [Mannitol]	22 g/100 g H2O	47.3	about 47%
OC[C@@H](O)[C@@H](O)[C@H](O)[C@@H](O)CO [Sorbitol]	235 g/100 g H2O	92	about 92%
OC[C@H]1O[C@@](CO)(O[C@H]2O[C@H](CO)[C@@H](O)[C@H](O)[C@H]2O)[C@@H](O)[C@@H]1O [Sucrose]	185 g/100 g H2O	–	–
OC[C@@H](O)[C@H](O)[C@@H](O)CO [Xylitol]	200 g/100 g H2O	–	–
Anhydrous Isomalt	39 g/100 g H2O	–	–
Isomalt	–	71	–
